Patent US4997652A, “Biodegradable ocular implants” (priority 1989, dated 1991)
Several values for one entry are separate records, joined by “and”; a condition that tells them apart may be missing. Equal entries are not always repeated. Where two headings read alike, the source gives them in different places.

Tests used:
in vivo = assay: in vivo; design: species or system New Zealand white rabbits; details: rabbit
Experimental: 1. 50 μg/0.1 ml doxorubicin was injected into the AC of 10 New Zealand white rabbits. The AC was tapped for doxorubicin assay.

eye [1] = assay: Ocular toxicity observation after AC injection of unencapsulated doxorubicin; assay type: in vivo, New Zealand white rabbits
Experimental: 2. 50 μg/0.10 ml doxorubicin was injected into the […] in each of two rabbits. The contralateral eye was given 0.10 ml of normal saline.

[2] = Residual vitreous doxorubicin after injection of doxorubicin into the PC; assay type: in vivo, rabbits
Experimental: 1. 50 μg/0.1 ml doxorubicin was injected into the posterior chamber (PC) of each of 10 rabbits. The contralateral eye served as control.

eye [3] = assay: Clinical observation of eye after PC injection of doxorubicin; assay type: in vivo, rabbits; details: free drug
Experimental: 2. 50 μg/0.10 ml of doxorubicin was injected into one eye of two animals for clinical observation for one week. Saline control was injected into the contralateral eye.

[4] = 50 ug into PC right eye, free drug, 0 hours

COc1cccc2c1C(=O)c1c(O)c3c(c(O)c1C2=O)C[C@@](O)(C(=O)CO)C[C@@H]3O[C@H]1C[C@H](N)[C@H](O)[C@H](C)O1 [doxorubicin]
half-life (in vivo): ~1 h | ocular toxicity (eye [1]): causes ocular inflammation and corneal edema | time of ocular inflammation and corneal edema after AC injection (eye [1]): 2 to 3 days | Residual vitreous doxorubicin, Mean ± SD [2, 4]: 8.55 ± 0.24 µg/mL | Residual vitreous doxorubicin, single sample [2, 4]: 8.40 µg/mL and 8.74 µg/mL | Residual vitreous doxorubicin, single sample ([2]; 50 ug into PC right eye, free drug, 2 hours, 120 min): 4.65 µg/mL | Residual vitreous doxorubicin, single sample ([2]; 50 ug into PC right eye, free drug, 4 hours, 240 min): 3.4 µg/mL | Residual vitreous doxorubicin, single sample ([2]; 50 ug into PC right eye, free drug, 8 hours, 480 min): 0.75 µg/mL | Residual vitreous doxorubicin, single sample ([2]; 50 ug into PC right eye, free drug, 16 hours, 960 min): 0.21 µg/mL | concentration at 2 h ([2]; rabbit, vitreous, 0.05 mg, 50 ug into PC right eye, free drug, 2 hours, read-out: Residual vitreous doxorubicin, Mean ± SD): 5590 ± 1340 ng/mL | concentration at 2 h ([2]; rabbit, vitreous, 0.05 mg, 50 ug into PC right eye, free drug, 2 hours, read-out: Residual vitreous doxorubicin, single sample): 6540 ng/mL | concentration at 4 h ([2]; rabbit, vitreous, 0.05 mg, 50 ug into PC right eye, free drug, 4 hours, read-out: Residual vitreous doxorubicin, Mean ± SD): 3850 ± 640 ng/mL | concentration at 4 h ([2]; rabbit, vitreous, 0.05 mg, 50 ug into PC right eye, free drug, 4 hours, read-out: Residual vitreous doxorubicin, single sample): 4300 ng/mL | concentration at 8 h ([2]; rabbit, vitreous, 0.05 mg, 50 ug into PC right eye, free drug, 8 hours, read-out: Residual vitreous doxorubicin, Mean ± SD): 860 ± 160 ng/mL | concentration at 8 h ([2]; rabbit, vitreous, 0.05 mg, 50 ug into PC right eye, free drug, 8 hours, read-out: Residual vitreous doxorubicin, single sample): 980 ng/mL | concentration at 16 h ([2]; rabbit, vitreous, 0.05 mg, 50 ug into PC right eye, free drug, 16 hours, read-out: Residual vitreous doxorubicin, Mean ± SD): 240 ± 40 ng/mL | concentration at 16 h ([2]; rabbit, vitreous, 0.05 mg, 50 ug into PC right eye, free drug, 16 hours, read-out: Residual vitreous doxorubicin, single sample): 260 ng/mL | half-life ([2]; rabbit, vitreous, 0.05 mg, PC injection, 50 ug, read-out: halflife of free doxorubicin (converted)): ~3 h | clinical tolerance of PC injection (eye [3]): well tolerated | evidence of toxicity (eye [3]): No evidence of toxicity
